We go through ten compounds from PMC10844532, “The in vivo study on antioxidant activity of wendan decoction in treating hyperlipidemia: a pharmacokinetic-pharmacodynamic (PK-PD) model” (Frontiers in Pharmacology, 2024).

Molecules are shown by their SMILES. Read-outs that look alike come from different tables or passages of the source.

Data set [1] is described as follows: Plasma pharmacokinetics of 10 WDD components after gavage of WDD (LC-MS/MS, Phoenix NCA and compartment model). Format: in vivo, SD rats. Also on record: Tmax: unit: h. The conditions noted are these: for Tmax / AUC(0-t) / Cmax / half-life / t1/2: hyperlipidemia rat plasma, non-compartment, n = 6; for Model (optimal PK compartment model): chosen by AIC, Phoenix Model module, rats given WDD. How it is done:
LPO values of all the rats were assessed prior to therapy, and utilized as the baseline. […] Thermo Scientific Hypersil C18 analytical column (particle size: 1.9 µm, length: 100 mm, and diameter: 2.1 mm) was employed. Column operational conditions were like so, column temperature: 30°C, autosampler temperature: 4°C, whereas the flow rate: 0.3 mL/min. Injection volume: 3 μL, and mobile phase: aqueous solution containing 0.1% formic acid aqueous solution (A) and acetonitrile (B). […] Electrospray ion source (ESI) was used for mass spectrometry detection and analysis, both in positive and negative ion patterns. Nitrogen was kept as both of the auxiliary and sheath gas. The capillary temperature was 345°C, the atomizer temperature was 350°C, and the electrospray voltage was 3800 V. The mass spectrometry data for the 10 compounds and the internal standard (IS) are shown in Table 1. After accurately measuring 100 μL of plasma, 10 μL of the QC solution or the IS solution was supplemented, and the blend was vortexed for 30 s. Afterward, 300 μL of acetonitrile (as protein precipitant) was added, vortexed for 1 min, and then centrifuged (10 min at 12000 r/min). Finally, the supernatant was taken and stored for testing. […] The dose, plasma concentration and time after administration were imported into the NCA (Noncompartmental Analysis) module of Phoenix 8.1 to obtain the pharmacokinetic parameters. The Phoenix Model module of Phoenix software was used to establish the atrioventricular model of the drug. Akaike Information Criterion (AIC) rules were used to calculate the optimal PK model.

The next data set has as its system plasma lipids. Also on record: method as in Sahebkar, 2017. The conditions noted are these: randomized controlled trials ref Sahebkar, 2017, cited from earlier work.
The test system of data set [2] is experimental hyperlipidemia rat models. Also on record: method as in Kumar et al., 2020. The settings on record: experimental hyperlipidemia rat models ref Kumar et al., 2020; cited from earlier work.
The subject of another data set is hyperlipidemia hamsters. Also noted: method as in Shi et al., 2023. The conditions noted are these: compared with the control group ref Shi et al., 2023; cited from earlier work.
A further data set relates to hyperlipidemia mice. Also noted: method as in Yu et al., 2022. The conditions noted are these: hyperlipidemia mice ref Yu et al., 2022; cited from earlier work.
The test system of the next data set is HDL. Also on record: method as in Eu et al., 2010. The conditions noted are these: ref Eu et al., 2010; cited from earlier work.
The mark [3] stands for this setting: Sprague-Dawley, po, HTG: WDD 6.6 g/100 g by gavage.
Setting [4] is: Sprague-Dawley, po, LTG: WDD 2.2 g/100 g by gavage.
Where [5] appears, read: Sprague-Dawley, rat, plasma, po, 2.2 g/100 g, LTG: WDD 2.2 g/100 g by gavage.
The mark [6] stands for this setting: Sprague-Dawley, rat, plasma, po, 2.2 g/100 g, LTG: WDD 2.2 g/100 g by gavage, read-out: Tmax.
Where [7] appears, read: Sprague-Dawley, rat, plasma, po, 6.6 g/100 g, HTG: WDD 6.6 g/100 g by gavage.
The mark [8] stands for this setting: Sprague-Dawley, rat, plasma, po, 6.6 g/100 g, HTG: WDD 6.6 g/100 g by gavage, read-out: Tmax.

In the case of `O=C(/C=C/c1ccc(O)cc1)c1ccc(O)cc1O` [Isoliquiritigenin], the Tmax (in general, the time at which the peak concentration occurs) in data set [1] (HTG: WDD 6.6 g/100 g by gavage) came to 0.79 ± 0.21 h; in data set [1] (HTG: WDD 6.6 g/100 g by gavage, listed as isoliquiritigenin), 0.25 h; in data set [1] (setting [6]), 0.5 h. Further, the AUC(0-t) – broadly, the area under the concentration-time curve up to a stated or last time point – in data set [1] (setting [3]) was found to be 54.9 ± 2.07 ng·h/mL; in data set [1] (setting [4]), 48.5 ± 0.82 ng·h/mL. Moreover, the maximum concentration (Cmax) (usually the maximum level reached in the sampled fluid or tissue) worked out at 17.8 ± 3.31 ng/mL in data set [1] (setting [3]) and 16.2 ± 2.35 ng/mL in data set [1] (setting [4]). Further, the results for the half-life in data set [1] (setting [5]) and in data set [1] (setting [7]) were 27.4 ± 4.66 h and 14.6 ± 9 h, respectively.
`O=c1c(O)c(-c2ccc(O)c(O)c2)oc2cc(O)cc(O)c12` [Quercetin] showed a t1/2 in data set [1] (HTG: WDD 6.6 g/100 g by gavage) of 7.75 ± 12.99 h. In addition, the Tmax turned out to be 1.00 ± 0.00 h in data set [1] (LTG: WDD 2.2 g/100 g by gavage) and 0.75 h in data set [1] (setting [8]). The AUC(0-t) in data set [1] (setting [3]) is 370 ± 14.7 ng·h/mL; in data set [1] (setting [4]) it was 212 ± 9.39 ng·h/mL. Moreover, the Cmax in data set [1] (setting [3]) turned out to be 115 ± 4.83 ng/mL; in data set [1] (setting [4]) it was 98.4 ± 8.03 ng/mL. Moreover, in data set [1] (setting [5]), the half-life (as a rule, how long it takes for the measured level to halve) was 31.1 ± 41.4 h. In addition, in data set [1], the “Model (optimal PK compartment model)” value was “Two-Compartment Model”. The triglycerides result in the data set with plasma lipids (doses above 50 mg/day) was “significant reduction”. For the same compound, in the data set with plasma lipids (supplementation), the “effect on plasma lipids” value is “does not have any clinically relevant effect”.
For the compound `COc1ccc([C@@H]2CC(=O)c3c(O)cc(O[C@@H]4O[C@H](CO[C@@H]5O[C@@H](C)[C@H](O)[C@@H](O)[C@H]5O)[C@@H](O)[C@H](O)[C@H]4O)cc3O2)cc1O` [Hesperidin], the AUC(0-t) in data set [1] (setting [3]) came out at 439 ± 13.3 ng·h/mL; in data set [1] (setting [4]) it was 172 ± 3.26 ng·h/mL. In addition, the Cmax in data set [1] (setting [3]) worked out at 194 ± 24.3 ng/mL; in data set [1] (setting [4]), 34.6 ± 3.22 ng/mL. The half-life in data set [1] (setting [5]) is 12.1 ± 5.52 h; in data set [1] (setting [7]), 4.19 ± 0.17 h. Also, the Tmax in data set [1] (setting [6]) is 0.67 ± 0.42 h; in data set [1] (setting [8]) it was 0.75 h. Further, the “Model (optimal PK compartment model)” value in data set [1] is on record as “One-Compartment Model”. In addition, in data set [2], the altered redox homeostasis result was “can reduce altered redox homeostasis”.
Turning to `COc1ccc([C@@H]2CC(=O)c3c(O)cc(O)cc3O2)cc1O` [Hesperetin], the Tmax in data set [1] (HTG: WDD 6.6 g/100 g by gavage) stood at 0.67 ± 0.17 h; in data set [1] (HTG: WDD 6.6 g/100 g by gavage, listed as hesperetin), 0.25 h; in data set [1] (setting [6]), 1.42 ± 0.92 h. The t1/2 in data set [1] (HTG: WDD 6.6 g/100 g by gavage) was found to be 6.24 ± 0.36 h. Also, the AUC(0-t) amounted to 3890 ± 147 ng·h/mL in data set [1] (setting [3]) and 1030 ± 23.8 ng·h/mL in data set [1] (setting [4]). Further, the Cmax in data set [1] (setting [3]) amounted to 607 ± 130 ng/mL; in data set [1] (setting [4]), 223 ± 8.19 ng/mL. The half-life in data set [1] (setting [5]) was 5.88 ± 3.39 h; in data set [1] (setting [7]) it was 3.21 h. Moreover, the “Model (optimal PK compartment model)” value in data set [1] was “One-Compartment Model”. Also, in the data set with hyperlipidemia hamsters, the “body weight, obesity index, serum TC, TG, liver TC, TG and free fatty acid levels” value is listed as “significantly decreased”.
`CC1(C)[C@@H](O)CC[C@]2(C)[C@H]3C(=O)C=C4[C@@H]5C[C@@](C)(C(=O)O)CC[C@]5(C)CC[C@@]4(C)[C@]3(C)CC[C@@H]12` [Glycyrrhetinic acid]: the figures for the AUC(0-t) in data set [1] (setting [3]) and in data set [1] (setting [4]) were 10200 ± 298 ng·h/mL and 8180 ± 500 ng·h/mL, respectively. For the same compound, the figures for the Cmax in data set [1] (setting [3]) and in data set [1] (setting [4]) were 3280 ± 475 ng/mL and 2940 ± 220 ng/mL, respectively. For the same compound, the half-life in data set [1] (setting [5]) was 2.3 ± 0.16 h; in data set [1] (setting [7]), 6.02 ± 0.92 h. Besides, the figures for the Tmax in data set [1] (setting [6]) and in data set [1] (setting [8]) were 0.75 h and 0.54 ± 0.21 h, respectively. Also, the “bioavailability (from largest AUC in rat plasma)” value in data set [1] (both doses of WDD) is given as “good bioavailability”.
For the compound `C[C@@H]1O[C@@H](O[C@H]2[C@H](Oc3cc(O)c4c(c3)O[C@H](c3ccc(O)cc3)CC4=O)O[C@H](CO)[C@@H](O)[C@@H]2O)[C@H](O)[C@H](O)[C@H]1O` [Naringin], the AUC(0-t) in data set [1] (setting [3]) turned out to be 713 ± 46.4 ng·h/mL; in data set [1] (setting [4]) it was 210 ± 12.5 ng·h/mL. The Cmax in data set [1] (setting [3]) is 575 ± 17.6 ng/mL; in data set [1] (setting [4]), 36.8 ± 4.99 ng/mL. Further, the half-life in data set [1] (setting [5]) is 6.13 ± 0.94 h; in data set [1] (setting [7]) it was 5 ± 1.27 h. The Tmax was 0.54 ± 0.21 h in data set [1] (setting [6]) and 0.25 h in data set [1] (setting [8]). For the same compound, the “Model (optimal PK compartment model)” value in data set [1] is on record as “Two-Compartment Model”. Moreover, the “effect on reducing lipids and protecting liver” value in the data set with hyperlipidemia mice is “strong effect on reducing lipids and protecting liver”.
For `C[n+]1cccc(C(=O)[O-])c1` [Trigonelline], the AUC(0-t) was found to be 6010 ± 96.4 ng·h/mL in data set [1] (setting [3]) and 3560 ± 300 ng·h/mL in data set [1] (setting [4]). Further, the Cmax in data set [1] (setting [3]) amounted to 537 ± 7.69 ng/mL; in data set [1] (setting [4]), 388 ± 25.8 ng/mL. Further, the half-life in data set [1] (setting [5]) is 12.2 ± 1.65 h; in data set [1] (setting [7]), 11.8 ± 1.81 h. For the same compound, the time to peak (Tmax) in data set [1] (setting [6]) stood at 1.5 h; in data set [1] (setting [8]) it was 2.67 ± 0.33 h. Besides, the “Model (optimal PK compartment model)” value in data set [1] was “Two-Compartment Model”.
For the compound `CC1(C)[C@@H](O[C@H]2O[C@H](C(=O)O)[C@@H](O)[C@H](O)[C@H]2O[C@@H]2O[C@H](C(=O)O)[C@@H](O)[C@H](O)[C@H]2O)CC[C@]2(C)[C@H]3C(=O)C=C4[C@@H]5C[C@@](C)(C(=O)O)CC[C@]5(C)CC[C@@]4(C)[C@]3(C)CC[C@@H]12` [Glycyrrhizic acid], the results for the AUC(0-t) in data set [1] (setting [3]) and in data set [1] (setting [4]) were 128 ± 5.67 ng·h/mL and 104 ± 5.97 ng·h/mL, respectively. The Cmax is 45.1 ± 2.3 ng/mL in data set [1] (setting [3]) and 20.6 ± 2.16 ng/mL in data set [1] (setting [4]). Also, the half-life is 10.8 ± 3.88 h in data set [1] (setting [5]) and 15.5 ± 7.44 h in data set [1] (setting [7]). The Tmax in data set [1] (setting [6]) amounted to 1.5 h; in data set [1] (setting [8]), 0.25 h. In data set [1], the “Model (optimal PK compartment model)” value is “One-Compartment Model”. Further, in the data set on HDL, the HDL result is recorded as “can increase HDL”.
Regarding `COc1ccc(-c2cc(=O)c3c(OC)c(OC)c(OC)c(OC)c3o2)cc1` [Tangeretin], the AUC(0-t) in data set [1] (setting [3]) was found to be 22.4 ± 0.89 ng·h/mL; in data set [1] (setting [4]), 10.8 ± 0.32 ng·h/mL. The results for the Cmax in data set [1] (setting [3]) and in data set [1] (setting [4]) were 25.9 ± 2.98 ng/mL and 6.8 ± 0.46 ng/mL, respectively. Further, the half-life in data set [1] (setting [5]) is 8.83 ± 4.57 h; in data set [1] (setting [7]), 3.21 ± 0.89 h. Further, the Tmax in data set [1] (setting [6]) was 0.5 h; in data set [1] (setting [8]), 0.38 ± 0.13 h. Also, the “Model (optimal PK compartment model)” value in data set [1] is on record as “Two-Compartment Model”.
`O=C1C[C@@H](c2ccc(O)cc2)Oc2cc(O)cc(O)c21` [Naringenin]: the results for the AUC(0-t) in data set [1] (setting [3]) and in data set [1] (setting [4]) were 595 ± 15.4 ng·h/mL and 587 ± 14.3 ng·h/mL, respectively. Moreover, the Cmax is 139 ± 10.6 ng/mL in data set [1] (setting [3]) and 110 ± 6.8 ng/mL in data set [1] (setting [4]). Also, the half-life in data set [1] (setting [5]) is 12.5 ± 4.08 h; in data set [1] (setting [7]), 11.7 ± 1.94 h. For the same compound, the Tmax in data set [1] (setting [6]) and in data set [1] (setting [8]) was 0.75 h in each case. Besides, the “Model (optimal PK compartment model)” value in data set [1] is reported as “One-Compartment Model”.
